{
  "source": "paper PMC4382466",
  "about": "(Toxicologic pathology, 2014)",
  "key": {"[1]": {"parameters": "species or system Fischer 344 rats", "conditions": "in vivo, po"}, "[2]": {"test_system": "Fischer 344 rats", "conditions": "rat, in vivo"}, "[3]": {"test_system": "Fischer 344 rats", "conditions": "rat, in vivo", "remark": "listed apart in the source"}, "[4]": {"test_system": "Fischer 344 rats", "assay": "Kidney and urinary bladder histopathology", "assay_type": "in vivo", "conditions": "6 animals"}, "[5]": {"test_system": "γH2AX", "assay": "γH2AX immunofluorescence staining of kidney sections", "assay_type": "in vivo, Fischer 344 rats", "conditions": "five imaged fields, one rat/sex/group"}, "[6]": {"test_system": "γH2AX", "assay": "γH2AX immunofluorescence staining of bone marrow", "assay_type": "in vivo, Fischer 344 rats"}, "[7]": {"test_system": "Fischer 344 rats", "assay": "Clinical signs and body weights", "assay_type": "in vivo", "conditions": "n=6/sex/group"}, "[8]": {"test_system": "Fischer 344 rats", "conditions": "rat, in vivo", "remark": "listed apart in the source"}, "[9]": {"test_system": "rats", "conditions": "one-tenth the mouse LD10, ref NationalTechnicalInformationService; cited from earlier work"}, "[10]": {"test_system": "dogs", "conditions": "two times the mouse LD50; ref NationalTechnicalInformationService; cited from earlier work"}, "[11]": {"test_system": "Fischer 344 rats", "assay": "Mesna as mitigating co-treatment of batracylin-induced toxicity", "conditions": "male rats, mesna study, Day 5"}, "[12]": {"conditions": "oral batracylin 590 mg/m^2; ref Ames et al., 1991; cited from earlier work"}, "[13]": {"conditions": "male, Fischer 344, rat, 16 mg/kg"}, "[14]": {"conditions": "male, Fischer 344, rat, 32 mg/kg"}},
  "note": "Where two headings read alike, the source gives them in different places.",
  "data": [
    {"molecule": "Nc1ccc2c(c1)CN1C(=O)c3ccccc3C1=N2", "note": "[batracylin, 8-aminoisoindolo[1,2-b]quinazolin-12(10H)-one]", "values": [
      {"measurement": "AUC(0-inf)", "setting": "[1]; [13]", "value": 118, "unit": "ng·h/mL"},
      {"measurement": "AUC(0-t)", "setting": "[1]; [13]", "value": 98.3, "unit": "ng·h/mL"},
      {"measurement": "Cmax", "setting": "[1]; [13]", "value": 11.1, "unit": "ng/mL"},
      {"measurement": "Tmax", "setting": "[1]; [13]", "value": 4, "unit": "h"},
      {"measurement": "k el", "setting": "[1]; [13]", "value": "4.83e-05", "unit": "s⁻¹"},
      {"measurement": "half-life", "setting": "[1]; male, Fischer 344, rat, 16 mg/kg, Half-life", "value": 240, "unit": "min"},
      {"measurement": "AUC(0-inf)", "setting": "[1]; [14]", "value": 144, "unit": "ng·h/mL"},
      {"measurement": "AUC(0-t)", "setting": "[1]; [14]", "value": 112, "unit": "ng·h/mL"},
      {"measurement": "Cmax", "setting": "[1]; [14]", "value": 11.8, "unit": "ng/mL"},
      {"measurement": "Tmax", "setting": "[1]; [14]", "value": 4, "unit": "h"},
      {"measurement": "half-life", "setting": "[1]; [14]", "value": 666, "unit": "min"},
      {"measurement": "k el", "setting": "[1]; [14]", "value": "1.72e-05", "unit": "s⁻¹"},
      {"measurement": "half-life", "setting": "[1]; male, Fischer 344, rat, 32 mg/kg, Half-life", "value": 660, "unit": "min"},
      {"measurement": "half-life", "setting": "[1]; male, Fischer 344, rat, 32 mg/kg, half-life", "value": "240 to 660", "unit": "min"},
      {"measurement": "Lymphocytes, % of the total WBC population", "setting": "[2]", "value": 19, "unit": "%"},
      {"measurement": "Neutrophils, % of the total WBC population", "setting": "[2]", "value": 78, "unit": "%"},
      {"measurement": "Incidence of visibly red urine", "setting": "[3]", "value": "4 of the 6"},
      {"measurement": "Kidney: non-inflammatory tubular degeneration, severity (incidence)", "setting": "[4]; 16 mg/kg/day po x4 days, females", "value": "Mild (4), Moderate (2)"},
      {"measurement": "Kidney: non-inflammatory tubular degeneration, severity (incidence)", "setting": "[4]; 16 mg/kg/day po x4 days, males", "value": "Mild (6)"},
      {"measurement": "Kidney: non-inflammatory tubular degeneration, severity (incidence)", "setting": "[4]; 32 mg/kg/day po x4 days, females", "value": "Moderate (4), Marked (2)"},
      {"measurement": "Kidney: non-inflammatory tubular degeneration, severity (incidence)", "setting": "[4]; 32 mg/kg/day po x4 days, males", "value": "Moderate (6)"},
      {"measurement": "Nuclei γH2AX positive, renal cortex", "setting": "[5]; female rat, 16 mg/kg batracylin", "value": 22, "unit": "%"},
      {"measurement": "Nuclei γH2AX positive, renal cortex", "setting": "[5]; female rat, 32 mg/kg batracylin", "value": 15, "unit": "%"},
      {"measurement": "Nuclei γH2AX positive, renal cortex", "setting": "[5]; male rat, 16 mg/kg batracylin", "value": 13, "unit": "%"},
      {"measurement": "Nuclei γH2AX positive, renal cortex", "setting": "[5]; male rat, 32 mg/kg batracylin", "value": 29, "unit": "%"},
      {"measurement": "Bone marrow cellular nuclei γH2AX positive", "setting": "[6]; 4 of 6 low-dose females (16 mg/kg)", "value": "Less than 0.5%"},
      {"measurement": "Bone marrow cellular nuclei γH2AX positive", "setting": "[6]; all 6 low-dose males (16 mg/kg)", "value": "Less than 0.5%"},
      {"measurement": "Rats displaying evidence of toxicity (clinical signs)", "setting": "[7]; Day 3, high-dose group (32 mg/kg/day)", "value": "all of the rats"},
      {"measurement": "Rats displaying evidence of toxicity (clinical signs)", "setting": "[7]; Day 3, low-dose group (16 mg/kg/day)", "value": "a third of the rats"},
      {"measurement": "Protein casts, severity", "setting": "[8]", "value": "mild to moderate"},
      {"measurement": "Tubular dilation, severity", "setting": "[8]", "value": "mild"},
      {"measurement": "Urothelial atrophy, severity", "setting": "[8]", "value": "mild to moderate"},
      {"measurement": "Urothelial vacuolation, severity", "setting": "[8]", "value": "minimal to mild"},
      {"measurement": "Toxicity of oral batracylin in rats", "setting": "[9]", "value": "lethal"},
      {"measurement": "Toxicity of oral batracylin in dogs", "setting": "[10]", "value": "only slight toxicity"},
      {"measurement": "Non-inflammatory tubular degeneration, severity", "setting": "[11]", "value": "moderate"},
      {"measurement": "Tubular epithelial regeneration, severity", "setting": "[11]", "value": "mild"}
    ]},
    {"molecule": "N-acetylbatracylin [NAB]", "values": [
      {"measurement": "increase of AUC0-24 hr for a 2-fold increase in dose", "setting": "[1]; rat", "value": 2.9, "unit": "fold"},
      {"measurement": "AUC0-24", "setting": "[1]; rat, 16 mg/kg", "value": 15150, "unit": "ng·h/mL"},
      {"measurement": "AUC0-∞", "setting": "[1]; rat, 16 mg/kg", "value": 15240, "unit": "ng·h/mL"},
      {"measurement": "Cmax", "setting": "[1]; rat, 16 mg/kg", "value": 2507, "unit": "ng/mL"},
      {"measurement": "Kel", "setting": "[1]; rat, 16 mg/kg", "value": 0.755, "unit": "h⁻¹"},
      {"measurement": "Tmax", "setting": "[1]; rat, 16 mg/kg", "value": 4, "unit": "h"},
      {"measurement": "AUC0-24", "setting": "[1]; rat, 32 mg/kg", "value": 44620, "unit": "ng·h/mL"},
      {"measurement": "AUC0-∞", "setting": "[1]; rat, 32 mg/kg", "value": 45170, "unit": "ng·h/mL"},
      {"measurement": "Cmax", "setting": "[1]; rat, 32 mg/kg", "value": 7214, "unit": "ng/mL"},
      {"measurement": "Kel", "setting": "[1]; rat, 32 mg/kg", "value": 0.108, "unit": "h⁻¹"},
      {"measurement": "NAB AUC0-24 hr, times greater than the corresponding value for batracylin", "setting": "[1]; rat, 32 mg/kg", "value": 398, "unit": "times"},
      {"measurement": "NAB Cmax, times greater than the corresponding value for batracylin", "setting": "[1]; rat, 32 mg/kg", "value": 611, "unit": "times"},
      {"measurement": "Tmax", "setting": "[1]; rat, 32 mg/kg", "value": 4, "unit": "h"},
      {"measurement": "Systemic levels of NAB, times greater in the rat than in the mouse", "setting": "[12]", "value": "approximately 9 times"}
    ]}
  ]
}
